Reference: patent publication US20150218516A1, “COMPOSITIONS AND METHODS FOR ENHANCING IMMUNE RESPONSES MEDIATED BY ANTIGEN-PRESENTING CELLS” (The Board of Regents of the University of Nebraska, priority 2007, published 2015)
“Also recorded” adds a separate entry of the source. Non-standard residues stand in square brackets, D forms with d. Residues, ends and D or L forms follow the SMILES beside them. No end group written: not given here.

Columns and labels:
[1] = system: P815S (HBsAg transfectant) target cells; test: HBsAg-specific CTL response of immunized mice, 51Cr-release cytotoxicity assay; assay type: in vivo, BALB/c mice; conditions: for Ag-specific CTL response (in words): two or three s.c. injections at 21 day intervals, no added adjuvant; for % Specific Lysis: s.c. in PBS
Description: Groups of six to eight BALB/c mice were given bilateral s.c. injections in the inguinal area with (100 al each side) of a PBS solution containing 50-100 μg of the peptides. Booster injections were given s.c. in the inguinal region at 21-day intervals. Sera for Ab analysis were obtained by retro-orbital bleeds of mice under CO2 narcosis.
Three weeks after secondary) (2° immunization and two weeks after tertiary)(3° immunization, two to three mice from each experimental group were sacrificed by cervical dislocation and their spleens removed aseptically. Pooled splenic single-cell suspensions were prepared in RPMI-1640 medium (Sigma, St. Louis, Mo.) containing 10% FBS (Hyclone, Salt Lake City, Utah) and the following supplements: 10 mM HEPES buffer, 50 μM 2-ME, 2 mM L-glutamine, 50 μg/ml gentamicin sulfate, 100 Um′ penicillin, and 50 μg/ml streptomycin (all supplements from Sigma). This supplemented complete medium is designated RP10-SC. For culture, 75×10^6 pooled spleen cells in 5 ml of RP10-SC were pipetted into a 25 cm^2 T-flask (Corning). Next, 5 ml of RP 10-SC containing 150 nM of synthetic, L^d MHC class I-restricted peptide, […] (SEQ ID NO:12) were added to the flask. The flasks were incubated undisturbed in an upright position at 37° C. in 5% CO2. After 4 days of incubation, the cells were recovered from the T-flasks, washed once by centrifugation in fresh RP10-SC, resuspended in 5 ml RP10-SC, counted, and adjusted to 5×10^6 viable cells/ml.
The specific cell target used for measuring CTL activity was P815S, a transfectant cell line of P815 (H-2^d) expressing the HBsAg (14). P815S was grown in RP10-SC medium containing 400 μg/ml geneticin disulfate (G418, Sigma). The parental H-2^d mastocytoma cell line, P815 (ATTC #TIB64) grown in RP10-SC medium, was used as a non-specific target for CTL assays to measure % non-specific lysis.
The target cells, either P815S or P815, were washed 2 times in RP10-SC. For labeling, 5×10^6 target cells were mixed with 250 μCi ^51Cr-sodium chromate[400-1200 Ci (14.8-44.4 TBq)]/[…]; NEN Dupont, Boston, Mass.) in a 1.0 ml volume in a 50 ml conical tube and incubated in a 37° C. water bath for 90 mins. After incubation, the labeled cells were washed 3 times by centrifugation using 15 ml volumes of fresh RP10-SC and allowed to stand at room temperature for 30 mins. The pelleted cells were resuspended in RP10-SC at 1×10^6 cells/ml.
The recovered splenic effector cells at 5×10^6 cells/ml were serially diluted in triplicate in wells of round-bottom 96 well plates (Corning, 25850) in a total volume of 100 al/well and using RP10-SC as the diluent. Next, 100 μl volumes of ^51Cr-labeled targets, P815S or P815, at 1×10^6 cells/ml were added to the wells. Maximum release (MR) wells contained 100 al of target cells and 100 al of 2% (v/v) Tween 20 while spontaneous release (SR) wells contained labeled cells in medium alone. Effector-to-target ratios of 50:1, 25:1, 12.5:1, and 6.25:1 were routinely employed. The plates were centrifuged at 400×g and incubated at 37° C. in 5% CO2 for 4 hrs. After incubation, the supernatant fractions in the wells were collected using a Skatron Supernatant Collection System (Skatron Instruments, Sterlin, Va.). The amount of ^51Cr radioactivity in the supernatant fractions was measured using a Wallac 1470 Wizard gamma counter (Turku, Finland).

[2] = system: human umbilical artery; test: Smooth muscle contraction of human umbilical artery; assay type: cell-based; conditions: for EC50: concentration resulting in 50% maximum contraction; for agonist behaviour relative to natural C5a (in words): umbilical artery contraction and MPO release assays; for pD2 ± SE: −log EC50 (M), mean ± SE, n=3
Description: (§1) Statistical analysis of the values obtained from pharmacologic assays was performed using one-way analysis of variance (ANOVA).

[3] = system: human PMNs; test: MPO release from human PMNs; assay type: cell-based; conditions: for EC50: 50% maximum release of myeloperoxidase; for pD2 ± SE: −log EC50 (M), mean ± SE, n=3
Description: as §1

[4] = system: MUC1 epitope peptide; test: Serum antibody response to MUC1 epitope peptide in immunized mice (RIA); assay type: in vivo, C57B16 and Balb/c mice; conditions: 100 μg i.p. with RIBI adjuvant, three immunizations, sera at 6 weeks
Description: The strains of mice used for this example were inbred females 6 to 12 week old C57B16(H-2^b) and Balb/c (H-2^d), which were obtained from Jackson labs (Bar Harbor, Me.). […] The MUC1 peptide selected for these studies contained a motif that may bind to the H-2K^b molecule of the C57B16 mice; therefore, a strain of mouse that lacked this class I molecule binding motif (Balb/c) was also studied to determine the relative contribution of the class I binding motif to the antigen presentation properties of these peptides.
(§2) Preimmune sera were obtained from mice, which were subsequently immunized intraperitoneally with 100 μg of the indicated peptide with RIBI adjuvant (MPL+TDM+CWS) (Sigma Immunochemicals). Animals were boosted twice at two week intervals using the same injection procedure. Sera were obtained following three immunizations (at 6 weeks).
For radioimmunoassay (RIA), anti-peptide antibodies were determined, before and at different time points after immunization, in 96-well microtiter plates (Dynatech Laboratories, Inc.). Plates were coated with 50 μl of a 100 μg/ml appropriate peptide in phosphate-buffered saline (PBS) pH 7.4 solution overnight at 4° C. The wells were blocked by incubation with 5% dry milk in PBS pH 7.4 for at least two hours. Anti-peptide antibody titers were determined using serial dilutions of sera. The sera were diluted with PBS containing 0.05% Tween-20, pH 7.4 (washing buffer) and 50 μl of each dilution was incubated at 37° C. for 1 hour. The wells were then drained, washed 4 times with PBS-Tween and 50 μl of ^125I-goat anti-mouse Ab (1-2×10^4 cpm/well) was added and incubated for 1 hr at 25° C. After washing, specific radioactivity was recorded in a gamma counter (1272 CliniGamma, LKB).
Experimental groups were as follows: • Group A. mice immunized with peptide (1) • Group B. mice immunized with peptide (2) • Group C. mice immunized with peptide (1) plus peptide (2) • Group D. mice immunized with peptide (3) • Group E. mice immunized with peptide (4).

[5] = system: MUC1 peptide; test: MUC1 specific antibody isotype titers in immunized mice (ELISA); assay type: in vivo, C57BL6 mice; conditions: for Ab titer IgA / Ab titer IgG1 / Ab titer IgG2a / Ab titer IgG2b / Ab titer IgG3 / Ab titer IgM: mean titer of responders, sera screened against MUC1 peptide, five mice
Description: as §2
Anti-peptide antibody isotype titers were determined by enzyme-linked immunosorbent assay (ELISA) carried out in 96-well microtiter plates. The plates were coated with 100 μg/ml of appropriate peptide in PBS, pH 7.4, and incubated overnight. The wells were blocked with 5% dry milk in PBS pH 7.4 for at least two hours. Anti-peptide titers were determined using serial dilutions of sera as described above. After the plates were washed 4 times, 50 μl of a 1:100 dilution of rabbit anti-mouse IgA, IgG1, IgG2a, IgG2b, IgG3 and IgM (Zymed) was added to each well and incubated at 25° C. for 1 hour. The plates were washed 4 times with washing buffer and 50 μl of 1:500 goat anti-rabbit conjugated to […] (Zymed) was incubated at 37° C. for 1 hour. Again, the plates were washed 4 times with washing buffer and bound enzyme was detected by the addition of 50 μl 1 mg/ml p-nitrophenyl phosphate (Sigma) in 10% diethanolamine (Sigma) pH 9.4. The reaction was stopped by the addition of 50 μl of 0.5 M sodium hydroxide and absorbance values (A405) were determined on Titertek Multiskan (Flow Laboratories, Irvine, Scotland).
The following experiment was performed in order to compare the potency of the molecular adjuvant of the present invention with a widely used method for enhancing the immune response to peptide epitopes. The objective was a direct comparison of the response to a construct of MUC1 epitope-C5a agonist and the same epitope conjugated to keyhole limpet hemocyanine (KLH) in mice.

[6] = Effector:Target 6.25:1, boost day 21, spleen cells day 42
[7] = Effector:Target 12.5:1, boost day 21, spleen cells day 42
[8] = Effector:Target 25:1, boost day 21, spleen cells day 42
[9] = Effector:Target 50:1, boost day 21, spleen cells day 42, restimulated 4 days with S28-39

Compound: CC[C@H](C)[C@H](N)C(=O)N1CCC[C@H]1C(=O)N[C@@H](CCC(N)=O)C(=O)N[C@@H](CO)C(=O)N[C@@H](CC(C)C)C(=O)N[C@@H](CC(=O)O)C(=O)N[C@@H](CO)C(=O)N[C@@H](Cc1c[nH]c2ccccc12)C(=O)N[C@@H](Cc1c[nH]c2ccccc12)C(=O)N[C@H](C(=O)N[C@@H](CO)C(=O)N[C@@H](CC(C)C)C(=O)N[C@@H](CCCNC(=N)N)C(=O)N[C@H](C(=O)N[C@@H](CCCNC(=N)N)C(=O)N[C@@H](CCCNC(=N)N)C(=O)N[C@@H](Cc1ccc(O)cc1)C(=O)N[C@@H](CO)C(=O)N[C@@H](Cc1ccccc1)C(=O)N[C@@H](CCCCN)C(=O)N1CCC[C@H]1C(=O)N[C@@H](CCSC)C(=O)N1CCC[C@H]1C(=O)N[C@@H](CC(C)C)C(=O)N[C@H](C)C(=O)N[C@@H](CCCNC(=N)N)C(=O)O)C(C)C)[C@@H](C)O (H-IPQSLDSWWTSLRVRRYSFKPMPL[dA]R-OH)
- Ag-specific CTL response (in words) [1]: specific CTL response that was significantly above background levels; also recorded: robust CTL activity
- EC50 [2]: 180 nM
- agonist behaviour relative to natural C5a (in words) [2]: full agonists
- pD2 ± SE [2]: 6.67 ± 0.22
- EC50 [3]: 2150 nM
- pD2 ± SE [3]: 5.61 ± 0.19

Compound: CC[C@H](C)[C@H](N)C(=O)N1CCC[C@H]1C(=O)N[C@@H](CCC(N)=O)C(=O)N[C@@H](CO)C(=O)N[C@@H](CC(C)C)C(=O)N[C@@H](CC(=O)O)C(=O)N[C@@H](CO)C(=O)N[C@@H](Cc1c[nH]c2ccccc12)C(=O)N[C@@H](Cc1c[nH]c2ccccc12)C(=O)N[C@H](C(=O)N[C@@H](CO)C(=O)N[C@@H](CC(C)C)C(=O)N[C@@H](Cc1ccc(O)cc1)C(=O)N[C@@H](CO)C(=O)N[C@@H](Cc1ccccc1)C(=O)N[C@@H](CCCCN)C(=O)N1CCC[C@H]1C(=O)N[C@@H](CCSC)C(=O)N1CCC[C@H]1C(=O)N[C@@H](CC(C)C)C(=O)N[C@H](C)C(=O)N[C@@H](CCCNC(=N)N)C(=O)O)[C@@H](C)O (H-IPQSLDSWWTSLYSFKPMPL[dA]R-OH)
- % Specific Lysis [1, 6]: 1%
- % Specific Lysis [1, 7]: 2%
- % Specific Lysis [1, 8]: 4%
- % Specific Lysis [1, 9]: 6%
- Ag-specific CTL response (in words) [1]: lack of a CTL response
- EC50 [2]: 210 nM
- agonist behaviour relative to natural C5a (in words) [2]: full agonists
- pD2 ± SE [2]: 6.68 ± 0.17
- EC50 [3]: 1580 nM
- pD2 ± SE [3]: 5.80 ± 0.04

Compound: IPQSLDSWWTSL [HBsAg L^d MHC class I-restricted peptide S28-39, reference compound]
- % Specific Lysis [1, 6]: 3%
- % Specific Lysis [1, 7]: 3%
- % Specific Lysis [1, 8]: 5%
- % Specific Lysis [1, 9]: 7%

Compound: IPQSLDSWWTSLRR [reference compound]
- % Specific Lysis [1, 6]: 0%
- % Specific Lysis [1, 7]: 1%
- % Specific Lysis [1, 8]: 2%
- % Specific Lysis [1, 9]: 2%

Compound: YKQGGFLGL [reference compound]
- antibody response (in words) [4]: no appreciable increase in antibody response

Compound: YKQGGFLGL-KLH (YKQGGFLGL-{KLH}; also: conjugated to KLH) [reference compound]
- Ab titer IgA [5]: 0
- Ab titer IgG1 [5]: 100
- Ab titer IgG2a [5]: 0
- Ab titer IgG2b [5]: 0
- Ab titer IgG3 [5]: 0
- Ab titer IgM [5]: 5010
- number of responders IgG1 ([5]; responders / mice immunized): (2/5)
- number of responders IgM ([5]; responders / mice immunized): (4/5)

Compound: YKQGGFLGLYSFKPMPLaR
- isotypes of the anti-peptide antibodies produced ([5]; FIG. 3): IgM, IgG2a, and IgG2b
- specificity of antibody response for the MUC1 epitope ([5]; FIG. 4): high percentage of antibodies that are specific for the MUC1 epitope
- Ab titer IgA [5]: 0
- Ab titer IgG1 [5]: 0
- Ab titer IgG2a [5]: 1260
- Ab titer IgG2b [5]: 1780
- Ab titer IgG3 [5]: 0
- Ab titer IgM [5]: 6310
- number of responders IgG2a ([5]; responders / mice immunized): (5/5)
- number of responders IgG2b ([5]; responders / mice immunized): (5/5)
- number of responders IgM ([5]; responders / mice immunized): (5/5)
- antibody response (in words) ([4]; listed as MUC1 epitope/C5a agonist peptide conjugate): appreciable antibody response
- antibody response (in words) ([4]; listed as peptide 3): substantial responses

Compound: YSFKPMPLaRKQGGFLGL (YSFKPMPL[dA]RKQGGFLGL)
- antibody response (in words) [4]: immune responses were not produced
